# Read-outs that look alike come from different tables or passages of the source.
# Columns and labels:
# [1] = SafetyScreen44 (Eurofins), whole panel; conditions: at 10 × 10^−6 M
# Method: (§1) 1.4 Safety Pharmacology of Compound 24
# (§2) 1.4.1 Cerep panel (Eurofins)
# Compound 24 was further profiled for its off-target interactions against a panel of 44 targets. The screening was done by Eurofins Pharma Discovery within the SafetyScreen44 Panel (Cerep, ITEM P270). In all assays binding/functional inhibition was determined at 10 µM.
# Table S6. List of binding assays within the CEREP44 off-target panel and binding data for compound […]
# Ca2+ channel (L, dihydropyridine site) (antagonist radioligand) 75.3
# Norepinephrine transporter (h) (antagonist radioligand) 74.7
# Potassium Channel hERG (human) [3H] Dofetilide 73.1 […]
# 5-HT transporter (h) (antagonist radioligand) 49.8 […]
# MAO-A (antagonist radioligand) 24.9 kappa (h) (KOP) (agonist radioligand) 23.6 dopamine transporter (h) (antagonist radioligand) 22.7 […]
# KV channel (antagonist radioligand) 14.2 […]
# 5-HT1A (h) (agonist radioligand) 11.3 alpha2A (h) (antagonist radioligand) 8.4 […]
# CB1 (h) = biological target: T1, CB1 (h) (Homo sapiens, UniProt P21554); assay: Cerep panel binding assay; conditions: agonist radioligand
# T1 construct: purchased Eurofins Pharma Discovery (Cerep) SafetyScreen44 Panel, ITEM P270
# T1 sequence (P21554 whole entry): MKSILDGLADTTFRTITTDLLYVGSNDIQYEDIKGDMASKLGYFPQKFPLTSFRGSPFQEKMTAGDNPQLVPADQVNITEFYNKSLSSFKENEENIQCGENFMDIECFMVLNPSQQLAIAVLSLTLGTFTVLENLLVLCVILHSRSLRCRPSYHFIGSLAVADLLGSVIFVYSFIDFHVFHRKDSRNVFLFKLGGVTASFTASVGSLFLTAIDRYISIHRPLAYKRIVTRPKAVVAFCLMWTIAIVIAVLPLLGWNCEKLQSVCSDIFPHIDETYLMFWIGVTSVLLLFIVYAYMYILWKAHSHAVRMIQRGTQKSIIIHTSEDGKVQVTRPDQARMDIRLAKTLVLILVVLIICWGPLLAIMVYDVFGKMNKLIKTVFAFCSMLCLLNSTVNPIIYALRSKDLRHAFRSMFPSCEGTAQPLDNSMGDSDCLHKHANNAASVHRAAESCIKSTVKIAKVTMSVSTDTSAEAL
# Method: as §1, §2
# (§3) Compound 24 was further profiled for its off-target interactions against a panel of 44 targets. The
# (§4) screening was done by Eurofins Pharma Discovery within the SafetyScreen44 Panel (Cerep, ITEM
# (§5) P270). In all assays binding/functional inhibition was determined at 10 µM.
# (§6) Table S6. […]
# beta1 (h) = biological target: T2, beta1 (h) (Homo sapiens, UniProt P08588); assay: Cerep panel binding assay; conditions: agonist radioligand
# T2 construct: purchased Eurofins Pharma Discovery (Cerep) SafetyScreen44 Panel, ITEM P270
# T2 sequence (P08588 whole entry): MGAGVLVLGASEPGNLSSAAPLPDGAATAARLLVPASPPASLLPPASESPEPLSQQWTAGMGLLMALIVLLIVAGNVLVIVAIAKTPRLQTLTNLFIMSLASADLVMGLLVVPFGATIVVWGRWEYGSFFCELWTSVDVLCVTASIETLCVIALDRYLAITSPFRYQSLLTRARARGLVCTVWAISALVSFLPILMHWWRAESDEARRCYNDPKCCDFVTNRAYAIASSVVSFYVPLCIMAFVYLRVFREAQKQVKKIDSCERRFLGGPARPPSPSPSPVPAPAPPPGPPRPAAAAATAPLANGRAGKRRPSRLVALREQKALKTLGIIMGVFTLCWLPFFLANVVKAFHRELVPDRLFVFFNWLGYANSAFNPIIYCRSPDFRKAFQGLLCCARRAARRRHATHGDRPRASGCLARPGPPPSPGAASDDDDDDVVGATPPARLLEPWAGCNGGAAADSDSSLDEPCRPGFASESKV
# Method: as §1, §2, §3, §4, §5, §6
# KV channel = assay: Cerep panel binding assay; conditions: 10 µM, antagonist radioligand
# Method: as §1, §2, §3, §4, §5, §6
# NMDA = assay: Cerep panel binding assay; conditions: 10 µM, antagonist radioligand
# Method: as §1, §2, §3, §4, §5, §6
# 5-HT1B (h) = biological target: T3, 5-HT1B (h) (Homo sapiens, UniProt P28222); assay: Cerep panel binding assay; conditions: antagonist radioligand
# T3 construct: Eurofins Pharma Discovery (CRO that ran the assay) SafetyScreen44 Panel (Cerep, ITEM P270)
# Method: as §1, §2, §3, §4, §5, §6
# kappa (h) (KOP) = biological target: T4, kappa (h) (KOP) (Homo sapiens, UniProt P41145); assay: Cerep panel binding assay; conditions: agonist radioligand
# T4 construct: purchased Eurofins Pharma Discovery (Cerep) SafetyScreen44 Panel, ITEM P270
# Method: as §1, §2, §3, §4, §5, §6
# 5-HT2A (h) = biological target: T5, 5-HT2A (h) (Homo sapiens, UniProt P28223); assay: Cerep panel binding assay; conditions: agonist radioligand
# T5 construct: Eurofins Pharma Discovery (CRO that ran the assay) SafetyScreen44 Panel (Cerep, ITEM P270)
# T5 sequence (P28223 whole entry): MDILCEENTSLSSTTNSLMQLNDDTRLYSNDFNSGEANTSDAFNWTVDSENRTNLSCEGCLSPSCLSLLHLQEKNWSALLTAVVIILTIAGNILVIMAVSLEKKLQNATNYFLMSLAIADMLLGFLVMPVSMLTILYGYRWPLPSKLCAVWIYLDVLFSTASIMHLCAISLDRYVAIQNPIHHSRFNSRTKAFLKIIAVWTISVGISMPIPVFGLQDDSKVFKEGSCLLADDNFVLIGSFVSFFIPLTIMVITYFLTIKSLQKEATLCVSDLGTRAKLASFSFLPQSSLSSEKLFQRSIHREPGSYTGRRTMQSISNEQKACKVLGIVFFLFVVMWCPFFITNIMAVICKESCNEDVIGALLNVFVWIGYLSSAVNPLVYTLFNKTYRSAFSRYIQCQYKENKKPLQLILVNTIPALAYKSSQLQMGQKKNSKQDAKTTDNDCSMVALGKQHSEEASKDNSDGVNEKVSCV
# Method: as §1, §2, §3, §4, §5, §6
# 5-HT transporter (h) = biological target: T6, 5-HT transporter (h) (Homo sapiens, UniProt P31645); assay: Cerep panel binding assay; conditions: antagonist radioligand
# T6 construct: purchased Eurofins Pharma Discovery (Cerep) SafetyScreen44 Panel, ITEM P270
# T6 sequence (P31645 whole entry): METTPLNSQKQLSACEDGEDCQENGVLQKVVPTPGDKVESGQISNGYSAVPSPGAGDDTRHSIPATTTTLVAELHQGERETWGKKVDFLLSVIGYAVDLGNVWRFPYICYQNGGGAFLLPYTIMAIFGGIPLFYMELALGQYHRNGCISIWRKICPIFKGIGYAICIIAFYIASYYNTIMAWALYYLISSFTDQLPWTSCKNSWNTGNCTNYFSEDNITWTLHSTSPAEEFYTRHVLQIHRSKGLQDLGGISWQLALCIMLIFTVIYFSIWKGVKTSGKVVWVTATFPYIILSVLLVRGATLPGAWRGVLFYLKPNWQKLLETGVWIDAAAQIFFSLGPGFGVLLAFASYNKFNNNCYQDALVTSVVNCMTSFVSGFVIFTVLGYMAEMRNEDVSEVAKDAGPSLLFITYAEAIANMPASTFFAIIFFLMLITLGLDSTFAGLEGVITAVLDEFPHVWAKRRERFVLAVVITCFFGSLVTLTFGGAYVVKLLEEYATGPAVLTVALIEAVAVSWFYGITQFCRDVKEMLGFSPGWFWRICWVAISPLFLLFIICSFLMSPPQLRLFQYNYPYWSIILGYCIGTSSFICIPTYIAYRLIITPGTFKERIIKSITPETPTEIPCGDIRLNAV
# Method: as §1, §2, §3, §4, §5, §6
# 5-HT2B (h) = biological target: T7, 5-HT2B (h) (Homo sapiens, UniProt P41595); assay: Cerep panel binding assay; conditions: agonist radioligand
# T7 construct: purchased Eurofins Pharma Discovery (Cerep) SafetyScreen44 Panel, ITEM P270
# Method: as §1, §2, §3, §4, §5, §6
# MAO-A = biological target: T8, MAO-A (Rattus norvegicus, UniProt P21396); assay: Cerep panel binding assay; conditions: antagonist radioligand
# T8 construct: purchased Eurofins Pharma Discovery (Cerep) SafetyScreen44 Panel, ITEM P270
# T8 sequence (P21396 whole entry): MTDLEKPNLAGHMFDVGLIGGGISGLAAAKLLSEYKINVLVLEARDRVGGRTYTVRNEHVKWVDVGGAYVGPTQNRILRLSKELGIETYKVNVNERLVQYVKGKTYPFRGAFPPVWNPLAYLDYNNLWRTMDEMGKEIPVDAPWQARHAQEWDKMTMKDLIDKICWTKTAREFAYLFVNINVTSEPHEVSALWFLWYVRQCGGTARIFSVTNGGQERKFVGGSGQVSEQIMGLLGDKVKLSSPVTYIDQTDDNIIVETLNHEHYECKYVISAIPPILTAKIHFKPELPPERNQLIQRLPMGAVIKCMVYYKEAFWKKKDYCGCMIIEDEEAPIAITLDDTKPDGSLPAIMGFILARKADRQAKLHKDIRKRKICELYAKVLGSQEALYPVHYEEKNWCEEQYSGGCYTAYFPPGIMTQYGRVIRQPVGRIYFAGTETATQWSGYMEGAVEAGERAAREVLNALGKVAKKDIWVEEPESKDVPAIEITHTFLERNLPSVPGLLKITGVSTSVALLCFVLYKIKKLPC
# Method: as §1, §2, §3, §4, §5, §6
# M2 (h) = biological target: T9, M2 (h) (Homo sapiens, UniProt P08172); assay: Cerep panel binding assay; conditions: antagonist radioligand
# T9 construct: Eurofins Pharma Discovery (CRO that ran the assay) SafetyScreen44 Panel (Cerep, ITEM P270)
# T9 sequence (P08172 whole entry): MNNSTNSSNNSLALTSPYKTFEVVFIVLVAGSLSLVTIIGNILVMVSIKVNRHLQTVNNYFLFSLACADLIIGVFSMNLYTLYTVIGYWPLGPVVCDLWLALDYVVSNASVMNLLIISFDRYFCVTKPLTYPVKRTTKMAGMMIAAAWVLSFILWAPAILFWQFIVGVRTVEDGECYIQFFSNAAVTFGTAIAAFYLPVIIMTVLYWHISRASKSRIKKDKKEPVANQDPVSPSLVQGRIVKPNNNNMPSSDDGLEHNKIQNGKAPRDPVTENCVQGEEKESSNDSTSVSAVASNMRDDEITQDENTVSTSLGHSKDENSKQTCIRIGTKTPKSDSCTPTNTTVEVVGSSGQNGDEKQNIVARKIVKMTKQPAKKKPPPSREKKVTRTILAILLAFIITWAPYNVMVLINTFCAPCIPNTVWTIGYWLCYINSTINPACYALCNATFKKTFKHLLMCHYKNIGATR
# Method: as §1, §2, §3, §4, §5, §6
# AR (h) = biological target: T10, AR (h) (Homo sapiens, UniProt P10275, T878A); assay: Cerep panel binding assay; conditions: agonist radioligand
# T10 construct: purchased Eurofins Pharma Discovery (Cerep) SafetyScreen44 Panel, ITEM P270
# T10 sequence (P10275 whole entry T878A): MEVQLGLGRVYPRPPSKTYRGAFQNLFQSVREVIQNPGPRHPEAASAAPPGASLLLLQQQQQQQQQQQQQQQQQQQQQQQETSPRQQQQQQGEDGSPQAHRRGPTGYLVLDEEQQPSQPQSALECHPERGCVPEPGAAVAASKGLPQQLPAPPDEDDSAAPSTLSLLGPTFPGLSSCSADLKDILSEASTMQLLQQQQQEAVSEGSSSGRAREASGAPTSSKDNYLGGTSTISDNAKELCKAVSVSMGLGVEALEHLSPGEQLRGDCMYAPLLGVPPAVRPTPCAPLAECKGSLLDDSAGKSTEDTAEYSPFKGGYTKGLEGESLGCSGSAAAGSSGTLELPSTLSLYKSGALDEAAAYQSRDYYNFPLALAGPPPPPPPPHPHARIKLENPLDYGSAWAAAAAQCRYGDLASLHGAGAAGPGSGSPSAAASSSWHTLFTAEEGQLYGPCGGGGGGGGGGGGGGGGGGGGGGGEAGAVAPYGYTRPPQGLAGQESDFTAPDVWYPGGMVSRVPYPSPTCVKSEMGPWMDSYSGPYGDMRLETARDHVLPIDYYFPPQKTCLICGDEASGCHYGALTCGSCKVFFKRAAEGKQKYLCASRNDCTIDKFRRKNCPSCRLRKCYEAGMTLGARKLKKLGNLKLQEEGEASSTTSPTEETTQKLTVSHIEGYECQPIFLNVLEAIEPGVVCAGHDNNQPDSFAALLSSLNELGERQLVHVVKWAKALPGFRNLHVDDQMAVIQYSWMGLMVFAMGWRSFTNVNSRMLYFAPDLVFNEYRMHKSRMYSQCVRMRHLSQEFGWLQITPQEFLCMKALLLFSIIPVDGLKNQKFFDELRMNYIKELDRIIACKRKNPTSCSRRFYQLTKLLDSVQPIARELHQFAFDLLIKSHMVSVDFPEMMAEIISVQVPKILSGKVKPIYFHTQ
# Method: as §1, §2, §3, §4, §5, §6
# GR (h) = biological target: T11, GR (h) (Homo sapiens, UniProt P04150); assay: Cerep panel binding assay; conditions: agonist radioligand
# T11 construct: purchased Eurofins Pharma Discovery (Cerep) SafetyScreen44 Panel, ITEM P270
# Method: as §1, §2, §3, §4, §5, §6
# CB2 (h) = biological target: T12, CB2 (h) (Homo sapiens, UniProt P34972); assay: Cerep panel binding assay; conditions: agonist radioligand
# T12 construct: purchased Eurofins Pharma Discovery (Cerep) SafetyScreen44 Panel, ITEM P270
# Method: as §1, §2, §3, §4, §5, §6
# delta (DOP) (h) = biological target: T13, delta (DOP) (h) (Homo sapiens, UniProt P41143); assay: Cerep panel binding assay; conditions: agonist radioligand
# T13 construct: purchased Eurofins Pharma Discovery (Cerep) SafetyScreen44 Panel, ITEM P270
# T13 sequence (P41143 whole entry): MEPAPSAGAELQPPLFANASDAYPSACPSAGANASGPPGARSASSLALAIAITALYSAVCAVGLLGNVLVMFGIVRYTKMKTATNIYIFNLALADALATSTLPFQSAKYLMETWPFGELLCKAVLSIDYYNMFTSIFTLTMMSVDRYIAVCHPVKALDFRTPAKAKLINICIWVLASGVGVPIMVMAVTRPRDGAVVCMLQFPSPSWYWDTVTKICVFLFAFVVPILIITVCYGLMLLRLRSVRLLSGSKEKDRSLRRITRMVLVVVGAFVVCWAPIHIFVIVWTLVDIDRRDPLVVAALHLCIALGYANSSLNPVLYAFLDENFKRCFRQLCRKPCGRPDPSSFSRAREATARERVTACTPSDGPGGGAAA
# Method: as §1, §2, §3, §4, §5, §6
# 5-HT3 (h) = biological target: T14, 5-HT3 (h) (Homo sapiens, UniProt P46098); assay: Cerep panel binding assay; conditions: antagonist radioligand
# T14 construct: purchased Eurofins Pharma Discovery (Cerep) SafetyScreen44 Panel, ITEM P270
# T14 sequence (P46098 24-478): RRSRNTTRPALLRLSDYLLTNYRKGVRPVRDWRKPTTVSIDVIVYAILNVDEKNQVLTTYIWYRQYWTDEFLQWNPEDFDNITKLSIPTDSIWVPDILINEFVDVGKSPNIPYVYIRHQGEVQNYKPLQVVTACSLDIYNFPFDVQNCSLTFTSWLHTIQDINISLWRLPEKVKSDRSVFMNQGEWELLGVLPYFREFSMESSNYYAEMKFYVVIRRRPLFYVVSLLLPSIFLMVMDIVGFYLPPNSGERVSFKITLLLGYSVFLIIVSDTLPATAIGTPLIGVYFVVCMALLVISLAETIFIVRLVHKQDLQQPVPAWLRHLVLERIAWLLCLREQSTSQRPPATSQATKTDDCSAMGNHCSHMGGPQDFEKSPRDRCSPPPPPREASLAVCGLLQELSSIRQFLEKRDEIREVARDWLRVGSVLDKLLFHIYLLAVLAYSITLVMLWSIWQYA
# Method: as §1, §2, §3, §4, §5, §6
# [2] = tested on: Pseudomonas aeruginosa strain PA14; assay: Alkylquinolone quantification, strain PA14; type: cell-based
# Method: 1.2.2 Pyocyanin assay in Pseudomonas aeruginosa
# Inhibition of pyocyanin biosynthesis of compounds was measured spectrophotometrically as previously described.[2] Pseudomonas aeruginosa PA14 was grown in rich medium for 16 h under agitation with and without compound. Pyocyanin was extracted from cultures with chloroform, then re-extracted with 0.2 M HCl and quantified photometrically (520 nm). IC50 values were determined from dose-response curves of compounds using at least six different concentrations and fitting with non-linear regression analysis (OriginPro 2017–2020, Originlab Corporation).
# 1.2.3 Alkylquinolone quantification
# Inhibition of alkylquinolone (AQ) signal molecule biosynthesis of compound 24 was analyzed via LC-ESI-MS/MS. Extracellular concentrations of the AQs PQS (2-heptyl-3-hydroxy-4-quinolone), HHQ (2-heptyl-4-quinolone), HQNO (N-oxo-2-heptyl-4-Hydroxyquinoline), 2-AA (2-aminoacetophenone) were measured from supernatants of cultures incubated with or without compound for 17 h. 5,6,7,8-Tetradeutero-2-heptyl-4(1H)-quinolone (HHQ-d4) was added as internal standard before sample preparation. IC50 values were calculated according to the procedure of the pyocyanin assay (see above). LC-ESI-MS/MS conditions were as follows: Dionex Ultimate 3000 HPLC instrument parameters: Zorbax Eclipse XDB 80 Å C18 5 µm 4.6 x 50 mm (Agilent, Santa Clara, CA, USA); eluent A – H2O with 0.1% trifluoroacetic acid (TFA), 0.1% pentafluoropropionic acid (PFPA), 0.1% heptafluorobutyric acid (HFBA); eluent B – acetonitrile with 0.1% TFA, 0.1% PFPA, 0.1% HFBA; isocratic 50% A; flow – 0.7 mL/min. TSQ Quantum Access Max (Thermo Fisher Scientific, Waltham, MA, USA) instrument parameters: Spray voltage 3500 V, vaporizer temperature 370 °C, sheath gas pressure 35 psi, aux gas pressure 30 psi, capillary temperature 270 °C, collision pressure 1.5 mTorr, positive ionization mode. For AQ analyte reaction monitoring parameters please see Table S1.
# Table S1. LC-ESI-MS/MS reaction monitoring parameters of AQ analytes in positive ionization mode. […]
# Six replicates per sample were distributed evenly across the plate, with every row containing one replicate of each sample. The well plate was covered with the peg lid. One layer of parafilm was wrapped around the biofilm inoculator. The inoculator was incubated at 37 °C, static for 24 h with a beaker of H2O ensuring humidity. Alternatively, the plate was incubated using only LB for 8 h prior to addition of DMSO/24 to give 1% DMSO, followed by another 16 h incubation under the same […]
# After 24 h, the plate was removed from the incubator and the peg lid was transferred to a fresh 96 well plate (Nunc U bottom, Thermo Fisher, Dreieich, Germany) containing the respective target
# [3] = Apparent permeability in Calu-3 cell line; type: in vitro ADME; conditions: human; air–liquid interface
# [4] = Metabolic stability in mouse hepatocytes; type: in vitro ADME; conditions: read-out: Mouse hepatocytes t½
structure (smiles),measurement,setting,value
CC(C)Oc1ccc(-c2ncc(CNc3ccnc(C(F)(F)F)c3)cn2)cc1Cl [Compound 24],effects on any target of SafetyScreen44,[1],≤ 80%
same,inhibition at 10 µM,CB1 (h),16.3%
same,inhibition at 10 µM,beta1 (h),7.1%
same,BINDING (%),KV channel,14.2%
same,BINDING (%),NMDA,0.9%
same,inhibition at 10 µM,5-HT1B (h),-6.7%
same,inhibition at 10 µM,kappa (h) (KOP),23.6%
same,inhibition at 10 µM,5-HT2A (h),-2.8%
same,inhibition at 10 µM,5-HT transporter (h),49.8%
same,inhibition at 10 µM,5-HT2B (h),62.2%
same,inhibition at 10 µM,MAO-A,24.9%
same,inhibition at 10 µM,M2 (h),0%
same,inhibition at 10 µM,AR (h),12.7%
same,inhibition at 10 µM,GR (h),16.2%
same,inhibition at 10 µM,CB2 (h),31%
same,inhibition at 10 µM,delta (DOP) (h),14.5%
same,inhibition at 10 µM,5-HT3 (h),4.4%
same,IC50,"[2]; PA14, 17 h, read-out: IC50 PA14, 2‐AA biosynthesis",386 nM
same,IC50,"[2]; PA14, 17 h, read-out: IC50 PA14, HHQ biosynthesis",233 nM
same,IC50,"[2]; PA14, 17 h, read-out: IC50 PA14, HQNO biosynthesis",347 nM
same,IC50,"[2]; PA14, 17 h, read-out: IC50 PA14, PQS biosynthesis",349 nM
same,IC50,"[2]; PA14, read-out: IC50 values for individual AQs",160 to 453 nM
same,Papp at 4 h,[3],3.1 ± 0.28 ×10⁻⁶ cm/s
same,half-life,[4],9 min

# Source: publication PMC9929129, “Towards Translation of PqsR Inverse Agonists: From In Vitro Efficacy Optimization to In Vivo Proof‐of‐Principle” (Advanced Science, 2023)
